From ChEMBL document CHEMBL3044787, “Carboxylesterase of the Rice Stem Borer, Chilo suppressalis WALKER (Lepidoptera: Pyralidae), Responsible for Fenitrothion Resistance as a Sequestering Protein” (J Pestic Sci, 1996)
One block for each molecule: values may come before it.

Experiments:
[1] = Binding affinity to carboxylesterase in organophosphate-resistant Chilo suppressalis (rice stem borer) midgut soluble fraction assessed as inhibition of [14C]fenitroxon-sequestering activity at 10 umol/ml; conditions: probe [14C]fenitroxon
Chilo suppressalis [2] = test: Insecticidal activity against wild-type Chilo suppressalis (rice stem borer) fifth-instar larvae assessed as mortality after 24 hr; type: functional
Chilo suppressalis [3] = test: Insecticidal activity against organophosphate-resistant Chilo suppressalis (rice stem borer) fifth-instar larvae assessed as mortality after 24 hr; type: functional
Malpighian tubule [4] = test: Drug uptake in Malpighian tubules of wild-type Chilo suppressalis (rice stem borer) fifth-instar larvae assessed per mg protein by liquid scintillation counting; type: ADME
Midgut [5] = test: Drug uptake in midgut of wild-type Chilo suppressalis (rice stem borer) fifth-instar larvae assessed per mg protein by liquid scintillation counting; type: ADME, tissue-based
Haemolymph [6] = test: Drug uptake in haemolymph of organophosphate-resistant Chilo suppressalis (rice stem borer) fifth-instar larvae assessed per mg protein by liquid scintillation counting; type: ADME
[7] = Drug uptake in cuticle/muscle of organophosphate-resistant Chilo suppressalis (rice stem borer) fifth-instar larvae assessed per mg protein by liquid scintillation counting; type: ADME
Haemolymph [8] = test: Drug uptake in haemolymph of wild-type Chilo suppressalis (rice stem borer) fifth-instar larvae assessed per mg protein by liquid scintillation counting; type: ADME
Malpighian tubule [9] = test: Drug uptake in Malpighian tubules of organophosphate-resistant Chilo suppressalis (rice stem borer) fifth-instar larvae assessed per mg protein by liquid scintillation counting; type: ADME
Carboxylesterase = biological target: T1, Carboxylesterase (Loxostege sticticalis, UniProt B3TNN2); test: Inhibition of carboxylesterase major isoform in organophosphate-resistant Chilo suppressalis (rice stem borer) midgut soluble fraction at 15 ng
T1 sequence (B3TNN2 whole entry): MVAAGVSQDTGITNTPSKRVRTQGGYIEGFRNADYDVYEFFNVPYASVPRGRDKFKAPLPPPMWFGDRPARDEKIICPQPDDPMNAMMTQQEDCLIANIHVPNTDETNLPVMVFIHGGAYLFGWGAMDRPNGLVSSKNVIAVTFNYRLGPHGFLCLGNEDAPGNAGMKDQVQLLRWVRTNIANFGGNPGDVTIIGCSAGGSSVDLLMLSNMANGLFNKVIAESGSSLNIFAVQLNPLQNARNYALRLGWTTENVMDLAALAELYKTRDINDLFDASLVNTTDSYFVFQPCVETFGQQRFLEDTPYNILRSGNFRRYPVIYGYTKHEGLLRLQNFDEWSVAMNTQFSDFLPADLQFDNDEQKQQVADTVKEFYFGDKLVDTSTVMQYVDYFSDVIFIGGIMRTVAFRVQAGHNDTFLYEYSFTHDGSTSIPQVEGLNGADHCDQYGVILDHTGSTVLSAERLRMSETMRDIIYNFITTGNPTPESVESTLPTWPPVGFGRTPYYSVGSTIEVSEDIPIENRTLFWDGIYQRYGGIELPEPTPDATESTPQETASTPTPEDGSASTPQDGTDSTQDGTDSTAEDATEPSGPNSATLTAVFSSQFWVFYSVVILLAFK

Fat body [10] = test: Drug uptake in fat body of wild-type Chilo suppressalis (rice stem borer) fifth-instar larvae assessed per mg protein by liquid scintillation counting; type: ADME
[11] = Drug uptake in cuticle/muscle of wild-type Chilo suppressalis (rice stem borer) fifth-instar larvae assessed per mg protein by liquid scintillation counting; type: ADME
Fat body [12] = test: Drug uptake in fat body of organophosphate-resistant Chilo suppressalis (rice stem borer) fifth-instar larvae assessed per mg protein by liquid scintillation counting; type: ADME
Midgut [13] = test: Drug uptake in midgut of organophosphate-resistant Chilo suppressalis (rice stem borer) fifth-instar larvae assessed per mg protein by liquid scintillation counting; type: ADME, tissue-based

- inhibition at 10 umol/ml [1]: 61.8%
Compound: CC(=O)Oc1cccc2ccccc12 [ALPHA-NAPHTHYLACETATE]

Compound: COP(=S)(OC)Oc1ccc([N+](=O)[O-])c(C)c1 [FENITROTHION]
- LD50 (Chilo suppressalis [2]): 2.42 mg/kg
- LD50 (Chilo suppressalis [3]): 77.3 mg/kg

Compound: COP(=O)(OC)Oc1ccc([N+](=O)[O-])c(C)c1 [FENITROXON]
- Drug uptake (Malpighian tubule [4]): 0.24 nmol/h
- Drug uptake (Midgut [5]): 0.22 nmol/h
- Drug uptake (Haemolymph [6]): 0.1 nmol/h
- Drug uptake [7]: 0.24 nmol/h
- Drug uptake (Haemolymph [8]): 0.042 nmol/h
- Drug uptake (Malpighian tubule [9]): 2.1 nmol/h
- inhibition (INH) (Carboxylesterase): Active
- Drug uptake (Fat body [10]): 0.052 nmol/h
- Drug uptake [11]: 0.044 nmol/h
- Drug uptake (Fat body [12]): 0.35 nmol/h
- Drug uptake (Midgut [13]): 1.5 nmol/h
